From patent publication US20200206233A1 (INTEGRAL BIOSCIENCES PRIVATE LIMITED, priority 2018, published 2020) come the findings set out here.

Assay [1] deals with T1, IDH1 mutant (R132H) (Homo sapiens, UniProt O75874, R132H).
T1 construct: purchased BPS Bioscience 71099-2
Put plainly: Mutant IDH1-R132H Fluorescence Assay (Resazurin based). The class given is biochemical. The settings on record: 10 nM IDH1 R132H, 4 mM α-ketoglutarate, NADPH, 1.5 h at room temperature. A digest of the protocol: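 Recombinant IDH1 R132H (10 nM) was run with α-ketoglutarate (4 mM) and NADPH ([…]) for 1.5 h at room temperature in Tris pH buffer with MgCl2, BSA and mercaptoethanol. Remaining NADPH was detected via diaphorase/resazurin fluorescence (ex 540/em 590 nm). IC50 came from a 4-parameter logistic fit.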
Background: Resazurin is reduced to fluorescent resorufin, in cell work by metabolically active cells.

The target of assay [2] is T2, IDH1-WT (Homo sapiens, UniProt O75874).
T2 construct: purchased BPS Bioscience 71075-2
Kind of assay: IDH1-WT Fluorescence Assay (Resazurin based). The class given is biochemical. The conditions noted are these: 1 nM IDH1-WT, 200 μM isocitrate, 15 μM NADP+, 30 min at room temperature. A digest of the protocol:
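Compounds (3-fold dilutions, 0.5% DMSO) preincubated 5 min with 200 μM isocitrate and 15 μM NADP+ in Tris/MgCl2 buffer, then 1 nM IDH1-WT added for 30 min at room temperature in the dark. NADPH detected via resazurin/diaphorase (15 min, ex 540/em 590 nm); IC50 by four-parameter logistic fit of % inhibition.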

Assay [3] deals with T3, IDH2 mutant (R140Q) (Homo sapiens, UniProt P48735, R140Q).
T3 construct: purchased BPS Bioscience 71100-2
T3 sequence (P48735 40-452 R140Q): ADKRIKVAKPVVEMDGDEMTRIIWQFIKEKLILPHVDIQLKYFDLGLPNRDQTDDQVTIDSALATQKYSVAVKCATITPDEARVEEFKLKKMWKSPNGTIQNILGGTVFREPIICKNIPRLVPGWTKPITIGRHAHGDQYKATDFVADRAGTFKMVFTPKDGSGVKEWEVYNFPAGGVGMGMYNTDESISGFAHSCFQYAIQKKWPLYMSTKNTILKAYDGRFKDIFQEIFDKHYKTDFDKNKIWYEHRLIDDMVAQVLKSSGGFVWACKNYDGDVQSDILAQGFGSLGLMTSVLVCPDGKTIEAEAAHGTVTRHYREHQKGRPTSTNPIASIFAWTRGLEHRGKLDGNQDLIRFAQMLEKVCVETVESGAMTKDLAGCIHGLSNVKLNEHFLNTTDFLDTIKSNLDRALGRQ
Kind of assay: Mutant IDH2-R140Q Fluorescence Assay (Resazurin based). The assay is classed as biochemical. The settings on record: 5 nM IDH2 R140Q, 4 hr pre-incubation, 1 mM α-ketoglutarate, 5 μM NADPH, 2 h. A digest of the protocol:
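Recombinant IDH2 R140Q (5 nM) pre-incubated 4 h at 25 °C with 3-fold diluted compounds in Tris/NaCl/MgCl2 buffer, then 2 h reaction with 1 mM α-ketoglutarate and 5 μM NADPH. Remaining NADPH detected via diaphorase/resazurin fluorescence (ex 540/em 590 nm); IC50 from four-parameter logistic fit of % inhibition vs DMSO and no-enzyme controls.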

Assay [4] addresses T4, mutant IDH1 (R132C) HT1080 cells (Homo sapiens, UniProt O75874, R132C).
T4 construct: host or cells: HT1080
Put plainly: Cellular 2-HG assay using mutant IDH1 (R132C) HT1080 cells. The conditions noted are these: 48 h treatment, 0.003 to 3 μM, 2-HG in cell culture media. The assay is classed as cell-based. As for the experimental part: HT1080 (ATCC® CCL-121™) cells were plated in a 12 well plate (Nunc™ Cell-Culture Treated Multidish; Cat #150628) at a cell density of 5×10^4 cells/well. Cells were then treated with various concentrations of test/reference compounds (ranging from 0.003 to 3 μM) or vehicle for 48 h under cell culture conditions (in CO2 incubator, 5% CO2, 37° C.). Metabolites were extracted from cell culture media by precipitation method and IC50 values of compounds were determined by Resazurin based Fluorescence assay. Assay buffer contained 100 mM HEPES pH 8.0, 100 μM NAD^+ (Sigma; Cat # N1630-100MG), […] HGDH, 5 μM resazurin (Cat #62758-13-8, Sigma) and 0.01 U/ml diaphorase (Cat # D2197-300UN, Sigma). Total assay volume was 100 μl. 75 μl of assay buffer was added to 25 μl sample volume (supernatant) and incubated at RT in the dark for 30 min in black 96-well plates (Thermo Scientific). Fluorometric detection was done using a Synergy Neo Plate reader (BioTek, Winooski) at single excitation of 540 nm and emission at 590 nm respectively).
The % activity of test samples was calculated as (Sample−Min)×100/(Max−Min). [Max: DMSO control, complete reaction with enzyme with DMSO and Min: No enzyme with DMSO]. Percent inhibition (100−% activity) was fitted to the “four-parameter logistic model” in XLfit for determination of IC50 values.

T1 sequence (O75874 whole entry R132H): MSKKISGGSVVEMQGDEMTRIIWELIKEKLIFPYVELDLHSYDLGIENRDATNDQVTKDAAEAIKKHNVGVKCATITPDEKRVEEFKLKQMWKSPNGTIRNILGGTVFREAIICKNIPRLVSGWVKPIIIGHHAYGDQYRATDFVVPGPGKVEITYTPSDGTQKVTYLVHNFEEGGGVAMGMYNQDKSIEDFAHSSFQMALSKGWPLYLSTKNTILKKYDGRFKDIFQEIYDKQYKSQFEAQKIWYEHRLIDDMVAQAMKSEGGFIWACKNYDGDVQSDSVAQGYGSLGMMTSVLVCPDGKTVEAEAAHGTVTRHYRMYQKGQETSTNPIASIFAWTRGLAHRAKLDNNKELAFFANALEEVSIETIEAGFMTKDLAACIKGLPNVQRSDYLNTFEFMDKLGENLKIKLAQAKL
T2 sequence (O75874 whole entry): as the sequence (O75874 whole entry R132H) above, with H132R counted along it
T4 sequence (O75874 2-414 R132C limits assumed): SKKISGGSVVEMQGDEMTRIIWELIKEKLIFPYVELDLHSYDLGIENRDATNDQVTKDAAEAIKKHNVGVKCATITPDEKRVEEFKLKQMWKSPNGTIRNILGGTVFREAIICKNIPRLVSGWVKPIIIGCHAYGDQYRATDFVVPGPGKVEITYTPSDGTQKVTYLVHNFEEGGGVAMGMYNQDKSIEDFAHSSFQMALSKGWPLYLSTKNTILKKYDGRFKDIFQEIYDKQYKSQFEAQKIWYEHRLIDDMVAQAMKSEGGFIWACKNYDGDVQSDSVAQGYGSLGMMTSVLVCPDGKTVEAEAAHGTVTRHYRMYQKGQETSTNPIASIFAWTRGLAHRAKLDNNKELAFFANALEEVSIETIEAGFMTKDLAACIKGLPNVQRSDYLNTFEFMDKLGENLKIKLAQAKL

What is called IC50 is the concentration that gives 50% inhibition. As to `CC[C@H]1COC(=O)N1c1nc(C)nc(N[C@@H](C)c2cc3cc(Cl)c(OC)cc3[nH]c2=O)n1` [Compound 1.42, (S)-3-(4-((S)-1-(6-chloro-7-methoxy-2-oxo-1,2-dihydroquinolin-3-yl)ethylamino)-6-methyl-1,3,5-triazin-2-yl)-4-ethyloxazolidin-2-one], the IC50 in assay [1] was 84 nM; in assay [2], above 50000 nM; in assay [3], above 50000 nM; in assay [4], 556 nM.

In the case of `CC[C@H]1COC(=O)N1c1nc(C)nc(N[C@@H](C)c2cn(-c3ccc(Cl)cc3)cn2)n1` [Compound 1.50, (S)-3-(4-((S)-1-(1-(4-chlorophenyl)-1H-imidazol-4-yl)ethylamino)-6-methyl-1,3,5-triazin-2-yl)-4-ethyloxazolidin-2-one], the IC50 is 456 nM in assay [1], above 50000 nM in assay [2], above 50000 nM in assay [3] and 413 nM in assay [4].
